Measurements reported in patent US5071875A (Northwestern University, priority 1989, dated 1991).

Tests used:
[1] = molecular target: T1, melatonin receptor (Oryctolagus cuniculus, UniProt G1SUP2); conditions: cited from earlier work
T1 construct: Typically, the rabbit retina tissues preincubation with [^3 H]-dopamine for 10 minutes; from tissue; host or cells: rabbit retina (superfused retinal tissue)
T1 sequence (G1SUP2 1-362): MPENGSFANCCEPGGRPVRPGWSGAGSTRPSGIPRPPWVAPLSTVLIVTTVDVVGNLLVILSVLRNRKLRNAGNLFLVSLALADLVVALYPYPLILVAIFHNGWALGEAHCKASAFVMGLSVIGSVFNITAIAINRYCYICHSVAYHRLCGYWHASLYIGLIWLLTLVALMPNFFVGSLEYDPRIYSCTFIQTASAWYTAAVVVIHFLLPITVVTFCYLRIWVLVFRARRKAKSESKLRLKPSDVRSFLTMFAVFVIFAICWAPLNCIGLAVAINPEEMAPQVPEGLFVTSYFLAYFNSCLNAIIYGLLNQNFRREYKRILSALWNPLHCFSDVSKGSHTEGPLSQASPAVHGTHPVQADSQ

[2] = molecular target: T1, melatonin receptor; conditions: cited from earlier work; remark: listed apart in the source
[3] = test system: melatonin receptor; assay: Inhibition of 2-[125I]iodomelatonin binding to chicken retinal membranes; conditions: for IC50: read-out: IC50, inhibition of 2-[125I]iodomelatonin binding to chicken retinal membranes, 0° C., 5 hr, in the dark
Experimental: Dubocovich, et al., Proc. Nat'l.
The compounds to be tested were dissolved in 1 mM HCl with 0.1% bovine serum albumin. Binding was initiated by addition of 220-μl aliquots of retinal membranes resuspended in the Tris-HCl buffer to tubes containing 20 μl of test compound or vehicle, and radioligand. […] Reactions were terminated by addition of 5 ml of ice-cold Tris-HCl buffer, and the contents were immediately filtered through glass-fiber filters (Schleicher & Schuell no. 30) soaked in 0.5% (vol/vol) polyethylenimine solution. Each filter was washed twice with 5 ml of the cold buffer. Radioactivity was determined in a gamma counter.

[4] = molecular target: T1, melatonin receptor; assay: Inhibition of calcium-dependent [3H]dopamine release from rabbit retina (melatonin agonist assay); format: cell-based; conditions: for IC50: compound added before S2, S-sulpiride 0.1 μM present; for inhibition at 1 µM: 1 μM concentration of test compound, read-out: % Maximal Inhibition of [3H]dopamine release
Experimental: Accordingly, all experiments were run in the presence of S-sulpiride (0.1 μM) to block D-2 dopamine autoreceptors present in the dopamine amacrine cells of retina.
Thus, the lower the IC50, the greater the agonistic activity.
Assays were performed as described in Dubocovich, J. Pharm. […] Retinal tissues are incubated for 10 min at 37° C. in the presence of 0.1 μM [^3 H]dopamine. The tissue was then washed in Krebs' solution at 37° C. and transferred to individual cylindrical plastic tubes having a thin nylon mesh on the bottom. These plastic tubes were then transferred to individual glass superfusion chambers containing platinum electrodes 30 mm apart. The tissue samples are superfused with Krebs' solution, starting at time equal zero until a leveling off of the spontaneous release of radioactivity occurred (about 60 mins). A time equal 60 mins S1 is applied.
Tritium release, i.e., release of [^3 H]dopamine, was elicited by field stimulation at 3 Hz, 20 mA, 2 msec duration. Field stimulations were applied in each experiment at either 60 (S1) or 100 (S2), min after the end of the incubation with [^3 H]dopamine. Samples of the superfusate were collected before, during, and after the period of stimulation. At the end of each experiment, the retinal tissue contained in each chamber was solubilized and the tritium content remaining in the retinal tissue was determined by liquid scintillaton counting. [drawing 8]
The inhibition of [^3 H]dopamine overflow (the percentage of total tissue radioactivity released by field stimulation above the spontaneous release levels, expressed as the ratio S2 /S1) is plotted as a function of the molar concentrations of the test compound (logarithmic scale).

[5] = molecular target: T1, melatonin receptor; assay: Antagonism of melatonin-induced inhibition of [3H]dopamine release from rabbit retina; format: cell-based; conditions: for shift of the melatonin concentration effect curve: 0.1 μM and 1 μM of test compound, compared with melatonin alone
Experimental: In this example, the test compound is added before the first period of electrical stimulation (S1) and remains present until the end of the experiment.
Typically, the rabbit retina tissues preincubation with [^3 H]-dopamine for 10 minutes is followed by a superfusion with Krebs solution at time equal zero. At time equal 20 minutes the test compound of interest is added. At time equal 60 minutes S1 is applied.
The ratio S2 /S1 can be plotted as a function of the molar concentrations of the test compound used (logarithmic scale).

[6] = test system: frog skin; conditions: cited from earlier work
[7] = test system: melatonin receptor; conditions: cited from earlier work
[8] = test compound 0.1 μM, melatonin 1 nM
[9] = test compound 0.1 μM, melatonin 10 nM
[10] = test compound 1 μM, melatonin 1 nM
[11] = test compound 1 μM, melatonin 10 nM

Row | Compound | IC50 [3] [nM] | IC50 [4] [nM] | inhibition at 1 µM [4] [%] | further results
1 | CC(=O)NCCc1c(Cc2ccccc2)[nH]c2ccccc12 [Luzindole, 2-benzyl-N-acetyltryptamine] | – | – | – | effect on spontaneous outflow and calcium-dependent release of [3H]dopamine ([1]; concentrations up to 10 μM, compound alone): does not modify; antagonism of the ability of melatonin to inhibit [3H]dopamine release [2]: antagonize the ability of melatonin to inhibit [^3 H]dopamine release in a competitive fashion
2 | CC(=O)NC1Cc2ccccc2C(c2ccccc2)C1 (stereo not shown) [AH 023, 4-phenyl-2-acetamidotetralin] | 630 | > 1000 | – | activity in competitively inhibiting the binding of 2-[125I]iodomelatonin to the melatonin binding site (in words) [3]: high activity; antagonism of melatonin-induced inhibition of [3H]dopamine release (in words) [5]: antagonize the melatonin-induced inhibition of [^3 H]dopamine release; shift of the melatonin concentration effect curve [5]: shift to the right; S2/S1 ([5]; test compound 0.01 μM, melatonin 0.1 nM): 0.69 ± 0.11; S2/S1 ([5]; test compound 0.01 μM, melatonin 1 nM): 0.30 ± 0.04; S2/S1 [5, 8]: 0.73 ± 0.04; S2/S1 [5, 9]: 0.37 ± 0.06; S2/S1 ([5]; test compound 1 μM, melatonin 0.1 nM): 1.02 ± 0.03; S2/S1 [5, 10]: 0.92 ± 0.07; S2/S1 [5, 11]: 0.69 ± 0.03
3 | COc1cccc2c1CC(NC(=O)Cc1ccccc1)CC2 (stereo not shown) [AH 016, 8-methoxy-2-phenylacetamido-tetralin] | – | > 1000 | 0 | –
4 | CCC(=O)NC1Cc2ccccc2C(c2ccccc2)C1 (stereo not shown) [AH 024, 4-phenyl-2-propionamido-tetralin] | 250 | > 1000 | – | activity in competitively inhibiting the binding of 2-[125I]iodomelatonin to the melatonin binding site (in words) [3]: high activity; antagonism of melatonin-induced inhibition of [3H]dopamine release (in words) [5]: antagonize the melatonin-induced inhibition of [^3 H]dopamine release; shift of the melatonin concentration effect curve [5]: shift to the right; S2/S1 ([5]; test compound 0.1 μM, melatonin 0.1 nM): 1.01 ± 0.07; S2/S1 [5, 8]: 0.76 ± 0.01; S2/S1 [5, 9]: 0.25 ± 0.01; S2/S1 [5, 10]: 0.91 ± 0.06; S2/S1 [5, 11]: 0.61 ± 0.01
5 | O=C(CCl)NC1Cc2ccccc2C(c2ccccc2)C1 (stereo not shown) [AH 026, 4-phenyl-2-chloroacetamido-tetralin] | – | > 1000 | – | –
6 | COc1cccc2c1CC(NC(=O)C(C)C)CC2 (stereo not shown) [AH 014, 8-methoxy-2-iso-butyramido-tetralin] | 4620 | 7.94 | 80 | –
7 | COc1ccc2c(c1)CC(NC(C)=O)CC2 (stereo not shown) [AH 008, 7-methoxy-2-acetamido-tetralin] | > 10000 | – | – | –
8 | CCC(=O)NC1CCc2cccc(OC)c2C1 (stereo not shown) [AH 002, 8-methoxy-2-propionamidotetralin] | – | – | – | activity in competitively inhibiting the binding of 2-[125I]iodomelatonin to the melatonin binding site (in words) [3]: high activity
9 | CC(=O)NC1CC(Cc2ccccc2)c2ccccc2C1=O (stereo not shown) [AH 028, 2-Acetamido-4-benzyl-1-tetralone] | 25000 | 16 | 60 | –
10 | COc1cccc2c1CC(NC(=O)C1CC1)CC2 (stereo not shown) [AH 015, 8-methoxy-2-cyclopropanecarbonylamido-tetralin] | 2940 | 2.51 | 80 | melatonin agonist activity (in words) [4]: melatonin agonists
11 | O=C(NC1CCc2ccccc2C1)c1ccccc1 (stereo not shown) [AH 019, 2-benzoylamido-tetralin] | > 10000 | – | – | –
12 | CC(=O)NCCc1c[nH]c2ccccc12 [N-acetyltryptamine] | – | – | – | melatonin receptor activity in rabbit retina (in words) [1]: partial melatonin agonist; effect on melatonin-induced lightening of α-MSH-induced darkening of frog skin [6]: antagonize the melatonin-induced lightening; melatonin receptor activity in chicken retina (in words) [7]: competitive melatonin receptor antagonist
13 | O=C(CCl)NC1Cc2ccccc2C(Cc2ccccc2)C1 (stereo not shown) [AH 029, 4-benzyl-2-chloroacetamido-tetralin] | – | 10 | 70 | –
14 | CCCC(=O)NC1CCc2ccccc2C1 (stereo not shown) [AH 020, 2-butyramido-tetralin] | 2910 | – | – | –
15 | CCCC(=O)NC1CCc2cccc(OC)c2C1 (stereo not shown) [AH 013, 8-methoxy-2-n-butyramidotetralin] | 257 | 1.18 | 80 | activity in competitively inhibiting the binding of 2-[125I]iodomelatonin to the melatonin binding site (in words) [3]: high activity; melatonin agonist activity (in words) [4]: melatonin agonists
16 | COc1cccc2c1CCC(NC(C)=O)C2 (stereo not shown) [AH 018, 5-methoxy-2-acetamido-tetralin] | 16000 | – | – | –
17 | CCC(=O)NC1CCc2ccccc2C1 (stereo not shown) [AH 006, 2-propionamido-tetralin] | 13000 | 8.13 | 70 | –
18 | COc1cccc2c1CC(NC(C)=O)CC2 (stereo not shown) [AH 001, 8-methoxy 2-acetamido-tetralin] | – | – | – | activity in competitively inhibiting the binding of 2-[125I]iodomelatonin to the melatonin binding site (in words) [3]: high activity
19 | CC(=O)NC1CCc2ccccc2C1 (stereo not shown) [AH 005, 2-acetamidotetralin] | 20000 | 52.2 | 50 | –
20 | COc1cccc2c1CC(NC(=O)c1ccccc1)CC2 (stereo not shown) [AH 007, 8-methoxy-2-benzoylamido-tetralin] | > 10000 | 10 | 40 | –
21 | COc1cccc2c1CC(NC(=O)CCl)CC2 (stereo not shown) [AH 017, 8-methoxy-2-chloroacetamidotetralin] | – | 0.063 | 75 | –
22 | CC(=O)NC1Cc2ccccc2C(Cc2ccccc2)C1 (stereo not shown) [AH 025, 4-benzyl-2-acetamidotetralin] | 400 | 4 | 70 | activity in competitively inhibiting the binding of 2-[125I]iodomelatonin to the melatonin binding site (in words) [3]: high activity; melatonin agonist activity (in words) [4]: melatonin agonists
23 | CCC(=O)NC1Cc2ccccc2C(Cc2ccccc2)C1 (stereo not shown) [AH 027, 4-benzyl-2-propionamido-tetralin] | 790 | 13 | 65 | activity in competitively inhibiting the binding of 2-[125I]iodomelatonin to the melatonin binding site (in words) [3]: high activity; melatonin agonist activity (in words) [4]: melatonin agonists
24 | O=C(CCl)NC1CCc2ccccc2C1 (stereo not shown) [AH 011, 2-chloroacetamido-tetralin] | – | 1.3 | 80 | –
